Results published in PubChem BioAssay (NCI).
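1) Cells in 96-well plates. 2) Compound, 48 h, 5 concentrations. 3) Linear interpolation between surrounding doses. 4) Unreached endpoint = highest concentration. At the GI50, growth is halved. TGI marks complete inhibition of growth.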 Where a SMILES comes first, the peptide text is derived from it. The star is where a group is joined. Cbz = O=C(OCc1ccccc1)*; CH2Cl = ClC*

System: K-562 leukemia
Test: NCI anticancer screen, dose series, 48 h

| Compound | GI50 [nM] | TGI [µM] |
| --- | --- | --- |
| COc1ccc(C(=O)/C=C/c2cc(-c3cc(OC)c(OC)c(OC)c3)n[nH]2)cc1OC | 1910 | 7.12 |
| C=C(C)[C@@H]1CC[C@]2(C)[C@H](CC=C3[C@@H]4CC(C)(C)CC[C@]4(C(N)=O)CC[C@]32C)[C@@]1(C)CCC#N | 2540 | > 100 |
| COc1c(OC[C@H](O)CN2CCOCC2)ccc2c3n(c(=NC(=O)c4cccnc4C)nc12)CCN3 | > 50000 | > 50 |
| O=C(c1ccccc1Br)C(F)(F)F | – | > 100 |
| COc1ccc(-c2nc3ccc(-c4nc5ccc(N6CCN(c7ccccc7)CC6)cc5[nH]4)cc3[nH]2)cc1OC | 366 | 2.92 |
| O=C(N[C@@H](c1ccc(Cl)c(Cl)c1)C1CNC1)c1ccc2cnccc2c1 | 3200 | > 40.3 |
| CO/N=C(\COc1ccc2c(c1)oc(=O)c1cc(OC)ccc12)c1ccc(OC)cc1 | > 100000 | > 100 |
| O=C1OCC2=C1C(c1cccc(Br)c1)c1cc3c(cc1N2CCO)CCC3 (stereo unspecified) | 110 | 7.9 |
| Clc1ccc2[nH]cc(-c3nnnn3-c3ccccc3)c2c1 | 8580 | > 67.3 |
| CC(=O)OC12C=CC(=O)N1c1ccccc1C(=O)O2 (stereo unspecified) | – | > 100 |
| CCCC(=O)Nc1cc2c3c(c1)CCCN3CCC2 | – | > 10 |
| COc1cc(-c2cc(-c3cc4c([nH]c5ccccc54)c(-c4cc(OC)c(OC)c(OC)c4)n3)cc(-c3ccccc3)n2)cc(OC)c1OC | 3390 | > 100 |
| O=C1C=CC(=O)c2cc3cc(CBr)ccc3cc21 | 339 | 6.03 |
| CC(C)Oc1ccc2cc(-c3nn(CC4CCNCC4)c4ncnc(N)c34)ccc2c1 | 2040 | 6.29 |
| COc1cc(F)ccc1-c1ncnc(Nc2cccc(CS(C)(=N)=O)c2)n1 (stereo unspecified) | 3780 | > 100 |
| CS(=O)(=O)CCNCc1nc(-c2ccc3ncnc(Nc4ccc(OCc5cccc(C(F)(F)F)c5)cc4)c3c2)cs1 | > 25000 | > 25 |
| CC(C)CC(NC(=O)OCc1ccccc1)C(=O)NC(Cc1ccccc1)C(=O)CCl (stereo not drawn) (Cbz-Leu-Phe-CH2Cl; configuration not given here) | – | 6.77 |
| [Cl][Hg][c]1cc[c]([Hg][Cl])o1 | 1240 | 11.8 |
| CCOC(=O)C(Cc1ccc(CCCC(=O)NCCC(=O)Nc2ccc3nc(C)sc3c2)cc1)C(=O)OCC | 47300 | > 100 |
| NCCNc1c2c(c(NCCN)c3[nH]ccc13)C(=O)c1ccccc1C2=O | 118 | 1.14 |
| Cc1c2c(C#N)nccc2c(C)c2c1c1ccccc1n2Cc1ccccc1 | – | > 100 |
| CCOC(=O)Nc1ccc(-c2nc(-c3cccc(OCCN4CCOCC4)c3)c(-c3ccnc(Br)c3)[nH]2)cc1 | 2530 | > 100 |
| COc1cc(Cn2c(-c3ccccc3)c(Cl)c3c2-c2oncc2CC3)cc(OC)c1 | 3080 | > 100 |
| COc1ccc(-c2nn(-c3ccc(NC(=O)c4ccc(Cl)c(Cl)c4)cc3)cc2-c2ccncc2)cc1Cl | 1760 | > 30.6 |
| CN(C)C(n1cc2c(c1)-c1ccc(Cl)cc1C(c1ccccc1F)=NC2)n1cc2c(c1)-c1ccc(Cl)cc1C(c1ccccc1F)=NC2 | – | > 100 |
| COc1cccc2c1C(=O)c1c(O)c3c(c(O)c1C2=O)C[C@](O)(C(=O)CO)C[C@H]3O[C@@H]1C[C@@H](NC(=O)CCCCCN(C)C2(c3ccc(F)cc3)CC3CCC2C3)[C@H](O)[C@@H](C)O1 (stereo partly specified) | 1110 | 2.47 |

System: HCT-15 colon
Test: NCI anticancer screen, dose series, 48 h

| Compound | TGI [µM] | GI50 [nM] |
| --- | --- | --- |
| O=C(O)Cc1cc(Cl)ccc1O | > 100 | – |
| COc1ccc(C(=O)/C=C/c2cc(-c3cc(OC)c(OC)c(OC)c3)n[nH]2)cc1OC | 2.85 | 1270 |
| C=C(C)[C@@H]1CC[C@]2(C)[C@H](CC=C3[C@@H]4CC(C)(C)CC[C@]4(C(N)=O)CC[C@]32C)[C@@]1(C)CCC#N | > 100 | 3140 |
| COc1c(OC[C@H](O)CN2CCOCC2)ccc2c3n(c(=NC(=O)c4cccnc4C)nc12)CCN3 | > 50 | 1620 |
| O=C(c1ccccc1Br)C(F)(F)F | > 100 | – |
| COc1ccc(-c2nc3ccc(-c4nc5ccc(N6CCN(c7ccccc7)CC6)cc5[nH]4)cc3[nH]2)cc1OC | > 100 | 5130 |
| O=C(N[C@@H](c1ccc(Cl)c(Cl)c1)C1CNC1)c1ccc2cnccc2c1 | 12 | 1600 |
| CO/N=C(\COc1ccc2c(c1)oc(=O)c1cc(OC)ccc12)c1ccc(OC)cc1 | > 100 | > 100000 |
| O=C1OCC2=C1C(c1cccc(Br)c1)c1cc3c(cc1N2CCO)CCC3 (stereo unspecified) | 7.14 | 114 |
| Clc1ccc2[nH]cc(-c3nnnn3-c3ccccc3)c2c1 | > 100 | 12000 |
| CC(=O)OC12C=CC(=O)N1c1ccccc1C(=O)O2 (stereo unspecified) | > 100 | – |
| CCCC(=O)Nc1cc2c3c(c1)CCCN3CCC2 | > 10 | – |
| COc1cc(-c2cc(-c3cc4c([nH]c5ccccc54)c(-c4cc(OC)c(OC)c(OC)c4)n3)cc(-c3ccccc3)n2)cc(OC)c1OC | > 100 | 3370 |
| O=C1C=CC(=O)c2cc3cc(CBr)ccc3cc21 | 17.3 | 5950 |
| CC(C)Oc1ccc2cc(-c3nn(CC4CCNCC4)c4ncnc(N)c34)ccc2c1 | 15.8 | 3740 |
| COc1cc(F)ccc1-c1ncnc(Nc2cccc(CS(C)(=N)=O)c2)n1 (stereo unspecified) | > 100 | 495 |
| CS(=O)(=O)CCNCc1nc(-c2ccc3ncnc(Nc4ccc(OCc5cccc(C(F)(F)F)c5)cc4)c3c2)cs1 | > 25 | > 25000 |
| CC(C)CC(NC(=O)OCc1ccccc1)C(=O)NC(Cc1ccccc1)C(=O)CCl (stereo not drawn) (Cbz-Leu-Phe-CH2Cl; configuration not given here) | 3.34 | – |
| [Cl][Hg][c]1cc[c]([Hg][Cl])o1 | 6.06 | 2050 |
| CCOC(=O)C(Cc1ccc(CCCC(=O)NCCC(=O)Nc2ccc3nc(C)sc3c2)cc1)C(=O)OCC | > 100 | 31800 |
| NCCNc1c2c(c(NCCN)c3[nH]ccc13)C(=O)c1ccccc1C2=O | 14.8 | 845 |
| Cc1c2c(C#N)nccc2c(C)c2c1c1ccccc1n2Cc1ccccc1 | > 100 | – |
| COc1cc(Cn2c(-c3ccccc3)c(Cl)c3c2-c2oncc2CC3)cc(OC)c1 | > 100 | 4840 |
| COc1ccc(-c2nn(-c3ccc(NC(=O)c4ccc(Cl)c(Cl)c4)cc3)cc2-c2ccncc2)cc1Cl | > 11 | 1090 |
| CN(C)C(n1cc2c(c1)-c1ccc(Cl)cc1C(c1ccccc1F)=NC2)n1cc2c(c1)-c1ccc(Cl)cc1C(c1ccccc1F)=NC2 | > 100 | – |
| COc1cccc2c1C(=O)c1c(O)c3c(c(O)c1C2=O)C[C@](O)(C(=O)CO)C[C@H]3O[C@@H]1C[C@@H](NC(=O)CCCCCN(C)C2(c3ccc(F)cc3)CC3CCC2C3)[C@H](O)[C@@H](C)O1 (stereo partly specified) | 9.11 | 2190 |

System: NCI/ADR-RES ovarian
Test: NCI anticancer screen, dose series, 48 h

| Compound | TGI [µM] | GI50 [µM] |
| --- | --- | --- |
| O=C(O)Cc1cc(Cl)ccc1O | > 100 | – |
| COc1ccc(C(=O)/C=C/c2cc(-c3cc(OC)c(OC)c(OC)c3)n[nH]2)cc1OC | 15.7 | 3.13 |
| C=C(C)[C@@H]1CC[C@]2(C)[C@H](CC=C3[C@@H]4CC(C)(C)CC[C@]4(C(N)=O)CC[C@]32C)[C@@]1(C)CCC#N | > 100 | 3.75 |
| COc1c(OC[C@H](O)CN2CCOCC2)ccc2c3n(c(=NC(=O)c4cccnc4C)nc12)CCN3 | > 50 | > 50 |
| O=C(c1ccccc1Br)C(F)(F)F | > 100 | – |
| COc1ccc(-c2nc3ccc(-c4nc5ccc(N6CCN(c7ccccc7)CC6)cc5[nH]4)cc3[nH]2)cc1OC | > 100 | > 100 |
| O=C(N[C@@H](c1ccc(Cl)c(Cl)c1)C1CNC1)c1ccc2cnccc2c1 | 27.1 | 12.1 |
| CO/N=C(\COc1ccc2c(c1)oc(=O)c1cc(OC)ccc12)c1ccc(OC)cc1 | > 100 | > 100 |
| O=C1OCC2=C1C(c1cccc(Br)c1)c1cc3c(cc1N2CCO)CCC3 (stereo unspecified) | 0.234 | 0.025 |
| Clc1ccc2[nH]cc(-c3nnnn3-c3ccccc3)c2c1 | 41.8 | 7.61 |
| CC(=O)OC12C=CC(=O)N1c1ccccc1C(=O)O2 (stereo unspecified) | > 100 | > 100 |
| CCCC(=O)Nc1cc2c3c(c1)CCCN3CCC2 | > 10 | – |
| COc1cc(-c2cc(-c3cc4c([nH]c5ccccc54)c(-c4cc(OC)c(OC)c(OC)c4)n3)cc(-c3ccccc3)n2)cc(OC)c1OC | 94.8 | 3.12 |
| O=C1C=CC(=O)c2cc3cc(CBr)ccc3cc21 | 32.4 | 6.78 |
